According to publication PMC12087874, “Biaryl Phosphates and Phosphonates as Selective Inhibitors of the Transcription Factor STAT4” (Angewandte Chemie (International Ed. in English), 2025):
“Also recorded” adds a separate entry of the source.

Key:
[1] = target: STAT3 (Homo sapiens, UniProt P40763); assay: CETSA of STAT3 in lysates from NK-92 cells; type: binding; design: endogenous in cells; host or cells: NK-92 (DSMZ) lysate
Method: NK-92 cells (DSMZ) were cultured in -MEM containing 12.5% fetal bovine serum (FBS), 12.5% horse serum, 2 mM L-glutamine, penicillin/streptomycin and 50 U/ml IL -2.
NK-92 cells were treated with test compound or DMSO in 1.5 ml medium in 12 -well plates (Corning) for 2 h (final DMSO concentration 0.2%), in the presence of 50 ng/ml IL -12 (PeproTech). […] Cells were harvested by washing twice with ice -cold TBS, followed by resuspension in TBS supplemented with protease/phosphatase inhibitors (100 ng/ml aprotinin, 1 mM Na3VO4, 10 mM NaF, 1 mM PMSF). […] Cells were lysed using three freeze -thaw cycles with liquid nitrogen and lysates cleared by centrif ugation.
NK-92 cell lysates were prepared for CETSA experiments by washing cultured cells once with TBS and resuspending in TBS supplemented with Halt Protease In hibitor Cocktail, EDTA-free (Fisher Scientific) at 3 x 10^6 cells per 100 µl. Cells were lysed using three freeze -thaw cycles with liquid nitrogen and lysates cleared by centrifugation.
CETSA experiments were performed essentially using the published protocol. […] Briefly, NK-92 cell lysates were incubated with test compound or DMSO for 15 min at room temperature (final DMSO concentration 2%). During this time, the treated lysate was divided into 10x 50 µl aliquots in 0.2 ml reaction tubes. Samples were then heated to the designated temperatures in a Veriti Pro Thermocycler (Thermo Fishe r Scientific) for 3 min, followed by 3 min incubation at room temperature, and then placed on ice. […] The soluble fractions were subsequently analyzed by Western blotting.
The components of cell lysates from treated cells, or heat-treated lysates from CETSA, were separated by SDS-PAGE (10%), transferred to nitrocellulose membrane (Bio-Rad) and detected using monoclonal rabbit primary antibodies (Cell Signaling), -rabbit-HRP secondary antibody (Dako) and Western Lightning Plus chemiluminescence reagent (Perkin Elmer).

[2] = target: T1, STAT4 (Homo sapiens, UniProt Q14765); assay: IL-12-induced STAT4 Tyr693 phosphorylation in NK-92 cells (Western blot); type: cell-based; design: utilizing cellular lysates from the STAT4‐expressing natural killer cell line NK‐92; endogenous in cells; host or cells: NK-92 (DSMZ); conditions: treatment for 2 h (Figure S4)
T1 sequence (Q14765 1-748): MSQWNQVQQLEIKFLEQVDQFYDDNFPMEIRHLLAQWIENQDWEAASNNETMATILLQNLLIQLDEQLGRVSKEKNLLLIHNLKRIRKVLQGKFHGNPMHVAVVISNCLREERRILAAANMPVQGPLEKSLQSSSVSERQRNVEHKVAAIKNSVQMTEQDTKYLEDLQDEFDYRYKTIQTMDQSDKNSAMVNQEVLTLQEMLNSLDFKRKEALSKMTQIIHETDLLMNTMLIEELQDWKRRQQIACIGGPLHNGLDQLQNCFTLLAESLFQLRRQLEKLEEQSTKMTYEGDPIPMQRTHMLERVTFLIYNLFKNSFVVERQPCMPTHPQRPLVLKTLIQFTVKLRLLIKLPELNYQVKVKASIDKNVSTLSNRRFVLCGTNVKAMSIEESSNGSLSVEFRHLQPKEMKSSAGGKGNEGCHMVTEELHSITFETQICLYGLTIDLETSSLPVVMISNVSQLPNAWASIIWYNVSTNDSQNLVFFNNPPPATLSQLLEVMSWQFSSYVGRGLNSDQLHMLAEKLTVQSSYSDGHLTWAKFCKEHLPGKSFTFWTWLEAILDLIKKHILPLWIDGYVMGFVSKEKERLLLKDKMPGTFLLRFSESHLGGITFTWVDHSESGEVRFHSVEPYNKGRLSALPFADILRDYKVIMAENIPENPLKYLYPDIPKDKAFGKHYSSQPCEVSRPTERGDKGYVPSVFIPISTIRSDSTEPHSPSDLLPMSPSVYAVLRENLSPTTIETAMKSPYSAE
Method: NK-92 cells (DSMZ) were cultured in α-MEM containing 12.5% fetal bovine serum (FBS), 12.5% horse serum, 2 mM L-glutamine, penicillin/streptomycin and 50 U/ml IL -2. […]
The components of cell lysates from treated cells, or heat-treated lysates from CETSA, were separated by SDS-PAGE (10%), transferred to nitrocellulose membrane (Bio-Rad) and detected using monoclonal rabbit primary antibodies (Cell Signaling), α-rabbit-HRP secondary antibody (Dako) and Western Lightning Plus chemiluminescence reagent (Perkin Elmer).
Bands were visualized using an ImageQuant system (GE Healthcare) and quantitated using ImageJ software (NIH). […]
The sitting drop was composed of 0.1 µl protein solution and 0.1 µl reservoir solution. Plates were stored at 19°C in a protein […]
In the first set of experiments, w e tried to crystallize STAT4 as a SUMO -STAT4 fusion protein […]
was cleaved off as described above.
Screening for crystallization conditions for tag-free STAT4 was performed both in the absence or presence of 1 equivalent of 6m or 6h. Since the chosen protein concentration of 3.6 mg/ml appeared to be too low, screening was repeated with a higher concentration of 6.4 mg/ml STAT4 for all conditions (corresponding to 100 µM 6m). Both the SUMO-STAT4 and the tag-free STAT4 preferentially precipitated under conditions containing polyethylene glycol. In one set of experiments, we also screened for conditions in the presence of the high-affinity peptide GY(PO3H2)LPQNID adapted from the IL-12 receptor. However, none of the conditions resulted in the growth of STAT4 crystals (Table S4).

Sequence of STAT3 (P40763 whole entry): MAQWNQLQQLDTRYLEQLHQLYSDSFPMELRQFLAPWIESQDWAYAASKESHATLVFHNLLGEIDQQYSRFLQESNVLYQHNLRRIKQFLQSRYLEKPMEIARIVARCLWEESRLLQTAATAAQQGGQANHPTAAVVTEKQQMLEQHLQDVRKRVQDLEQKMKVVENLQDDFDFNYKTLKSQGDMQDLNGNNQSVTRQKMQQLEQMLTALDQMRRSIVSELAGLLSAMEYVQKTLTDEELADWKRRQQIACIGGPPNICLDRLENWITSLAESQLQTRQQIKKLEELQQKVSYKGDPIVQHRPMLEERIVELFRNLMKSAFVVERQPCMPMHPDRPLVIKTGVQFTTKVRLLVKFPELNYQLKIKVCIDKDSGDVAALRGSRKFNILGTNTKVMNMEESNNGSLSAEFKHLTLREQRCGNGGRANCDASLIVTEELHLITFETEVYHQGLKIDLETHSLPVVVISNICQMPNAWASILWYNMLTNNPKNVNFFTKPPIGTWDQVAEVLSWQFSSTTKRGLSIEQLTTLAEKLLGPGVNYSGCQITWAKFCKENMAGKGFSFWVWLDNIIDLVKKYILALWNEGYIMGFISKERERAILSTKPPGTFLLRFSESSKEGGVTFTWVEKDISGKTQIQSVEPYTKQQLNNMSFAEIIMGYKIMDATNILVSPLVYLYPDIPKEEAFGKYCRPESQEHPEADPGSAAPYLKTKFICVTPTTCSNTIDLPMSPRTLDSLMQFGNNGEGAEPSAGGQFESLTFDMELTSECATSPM

Cc1cc(-c2ccc(C(F)(F)P(=O)(O)O)c(F)c2)cs1 [Compound 8k]
ΔT agg of STAT3 ([1]; CETSA, NK-92 cell lysates, versus DMSO control): −0.4 °C
T agg of STAT3 ([1]; CETSA, NK-92 cell lysates, DMSO control 51.0 ± 0.3 °C, n = 3): 50.6 ± 0.2 °C
stabilization of STAT3 against thermal degradation ([1]; lysates from NK-92 cells, Ac-pYLPQTV-NH2 at 100 µM): does not stabilize
inhibition of IL‐12‐induced STAT4 Tyr693 phosphorylation [2]: unable to inhibit; also recorded: does not inhibit
